Source: paper PMC6133161, “Thiazoles with cyclopropyl fragment as antifungal, anticonvulsant, and anti-Toxoplasma gondii agents: synthesis, toxicity evaluation, and molecular docking study” (Medicinal Chemistry Research, 2018)
In brackets after ≈: the same amount, converted by molar mass. Read-outs that look alike come from different tables or passages of the source.

How the values were obtained:
Test in all cases: Broth microdilution MIC/MFC, reference strain
Assay type in all cases: cell-based
[1] = system: Candida albicans ATCC 10231; conditions: C. albicans ATCC 10231
Text: (§1) The examined compounds 3a–3j were screened in vitro for antibacterial and antifungal activities using the broth microdilution method according to European Committee on Antimicrobial Susceptibility Testing (EUCAST) (EUCAST [2003]) and Clinical and Laboratory Standards Institute guidelines (CLSI [2012]) against reference strains of microorganisms from American Type Culture Collection (ATCC), including fungi belonging to yeasts (Candida albicans ATCC 2091, Candida albicans ATCC 10231, Candida parapsilosis ATCC 22019 and Candida krusei ATCC 14243).
(§2) In the study of antifungal activity of the compounds 3a–3j, 15 clinical strains of different species of yeasts from Candida species, namely C. albicans, C. dubliniensis C. famata, C. inconspicua, C. krusei, C. tropicalis, C. glabrata, C. lambica, C. kefyr, C. lusitaniae, C. parapsilosis, C. guilliermondii, C. lusitaniae, C. pulcherrima and C. sake were also used. These fungi were isolated by the author (from Department of Pharmaceutical Microbiology of Medical University in Lublin, Poland) from different clinical materials, e.g., from upper respiratory tract of hospitalized patients including cancer patients (i.e., with non-small cell lung cancer or hematological malignancies). Some patients were after pre-operative or post-operative chemotherapy (treated with etoposide or cis-platin given in doses according to the standard procedures), patients with chronic hepatitis C (undergoing peginterferon and ribavirin therapy or without antiviral therapy), patients with diabetes, elderly people, aged of 65 years old or older, staying in close population, such as a care centre and people staying outside the home care. The Ethical Committee of the Medical University of Lublin approved the study protocol (No. KE-0254/75/2011). The isolates were identified by standard diagnostic methods—biochemical microtest, e.g., API 20C AUX, ID 32C, API Candida (bioMérieux) on the basis of assimilation of various substrates. All the used microbial cultures were first subcultured on nutrient agar or Sabouraud agar for bacteria and fungi, respectively. The RPMI 1640 with MOPS (for fungi) were inoculated with the suspensions of fungal species. Microbial suspensions were prepared in sterile saline (0.85% NaCl) with an optical density of 0.5 McFarland standard scale (Wiegand et al. [2008]). Samples containing examined compounds were dissolved in dimethyl sulfoxide (DMSO). Furthermore, fungal suspensions were put onto Petri dishes with solid media containing 2 mg/ml of the tested compounds followed incubation under appropriate conditions. The inhibition of microbial growth was judged by comparison with a control culture prepared without any sample tested. Nystatin (Sigma) was used as a reference antifungal compound. Subsequently MIC minimal inhibitory concentration (MIC) of the compounds was examined by the microdilution broth method, using their two-fold dilutions in RPMI 1640 broth with MOPS prepared in 96-well polystyrene plates. Final concentrations of the compounds ranged from 1000 to 0.0038 µg/ml. Microbial suspensions were prepared in sterile saline with an optical density of 0.5 McFarland standard. Next fungal suspension was added per each well containing broth and various concentrations of the examined compounds. After incubation, the MIC was assessed spectrophotometric as the lowest concentration of the samples showing complete fungal growth inhibition. Appropriate DMSO, growth and sterile controls were carried out. The medium with no tested substances was used as a control (Wiegand et al. [2008]). The minimal fungicidal concentration (MFC) are defined as the lowest concentration of the compounds that is required to kill a particular fungal species. MFC was determined by removing the culture using for MIC determinations from each well and spotting onto appropriate agar medium. The plates were incubated. The lowest compounds concentration with no visible growth observed was assessed as a fungicidal concentration. […]

[2] = system: Candida albicans ATCC 2091; conditions: C. albicans ATCC 2091
Text: as §1, §2

[3] = system: Candida krusei ATCC 14243; conditions: C. krusei ATCC 14243
Text: as §1, §2

[4] = system: Candida parapsilosis ATCC 22019; conditions: C. parapsilosis ATCC 22019
Text: as §1, §2

[5] = Candida albicans, ATCC10231, read-out: MFC
[6] = Candida albicans, ATCC10231, read-out: MIC
[7] = Candida albicans, ATCC2091, read-out: MFC
[8] = Candida albicans, ATCC2091, read-out: MIC
[9] = Pichia kudriavzevii, ATCC14243, read-out: MFC
[10] = Pichia kudriavzevii, ATCC14243, read-out: MIC
[11] = Lodderomyces parapsilosis, ATCC22019, read-out: MFC
[12] = Lodderomyces parapsilosis, ATCC22019, read-out: MIC

MIC [1, 6] | MIC [2, 8] | MIC [3, 10] | MIC [4, 12] | SMILES | MFC [1, 5] | MFC [2, 7] | MFC [3, 9] | MFC [4, 11] | MFC [1] | MFC/MIC [1] | MIC [1] | MFC [2] | MFC/MIC [2] | MIC [2] | MFC [3] | MFC/MIC [3] | MIC [3] | MFC [4] | MFC/MIC [4] | MIC [4]
1.95 µg/mL (≈ 7.46 µM) | 1.95 µg/mL (≈ 7.46 µM) | 3.91 µg/mL (≈ 15 µM) | 1.95 µg/mL (≈ 7.46 µM) | Fc1ccc(-c2csc(N/N=C/C3CC3)n2)cc1 [Compound 3a, (E)-2-(2-(Cyclopropylmethylene)hydrazinyl)-4-(4-fluorophenyl)thiazole] | 15.6 µg/mL (≈ 59.8 µM) | 3.91 µg/mL (≈ 15 µM) | 15.6 µg/mL (≈ 59.8 µM) | 3.91 µg/mL (≈ 15 µM) |  |  |  |  |  |  |  |  |  |  |  | 
0.06 µg/mL (≈ 0.186 µM) | 0.12 µg/mL (≈ 0.372 µM) | 0.24 µg/mL (≈ 0.745 µM) | 0.48 µg/mL (≈ 1.49 µM) | Brc1ccc(-c2csc(N/N=C/C3CC3)n2)cc1 [Compound 3b, (E)-4-(4-Bromophenyl)-2-(2-(cyclopropylmethylene)hydrazinyl)thiazole] | 0.24 µg/mL (≈ 0.745 µM) | 0.98 µg/mL (≈ 3.04 µM) | 0.98 µg/mL (≈ 3.04 µM) | 1.95 µg/mL (≈ 6.05 µM) |  |  |  |  |  |  |  |  |  |  |  | 
0.12 µg/mL (≈ 0.432 µM) | 0.12 µg/mL (≈ 0.432 µM) | 0.12 µg/mL (≈ 0.432 µM) | 0.48 µg/mL (≈ 1.73 µM) | Clc1ccc(-c2csc(N/N=C/C3CC3)n2)cc1 [Compound 3c, (E)-4-(4-Chlorophenyl)-2-(2-(cyclopropylmethylene)hydrazinyl)thiazole] | 0.24 µg/mL (≈ 0.864 µM) | 0.48 µg/mL (≈ 1.73 µM) | 0.98 µg/mL (≈ 3.53 µM) | 1.95 µg/mL (≈ 7.02 µM) |  |  |  |  |  |  |  |  |  |  |  | 
0.06 µg/mL (≈ 0.233 µM) | 0.12 µg/mL (≈ 0.466 µM) | 0.06 µg/mL (≈ 0.233 µM) | 0.24 µg/mL (≈ 0.933 µM) | Cc1ccc(-c2csc(N/N=C/C3CC3)n2)cc1 [Compound 3d, (E)-2-(2-(Cyclopropylmethylene)hydrazinyl)-4-p-tolylthiazole] | 0.24 µg/mL (≈ 0.933 µM) | 1.95 µg/mL (≈ 7.58 µM) | 0.48 µg/mL (≈ 1.87 µM) | 0.98 µg/mL (≈ 3.81 µM) |  |  |  |  |  |  |  |  |  |  |  | 
0.48 µg/mL (≈ 1.72 µM) | 1.95 µg/mL (≈ 6.98 µM) | 7.81 µg/mL (≈ 28 µM) | 3.91 µg/mL (≈ 14 µM) | Fc1ccc(-c2csc(N/N=C/C3CC3)n2)c(F)c1 [Compound 3g, (E)-2-(2-(Cyclopropylmethylene)hydrazinyl)-4-(2,4-difluorophenyl)thiazole] | 0.98 µg/mL (≈ 3.51 µM) | 1.95 µg/mL (≈ 6.98 µM) | 31.2 µg/mL (≈ 112 µM) | 3.91 µg/mL (≈ 14 µM) |  |  |  |  |  |  |  |  |  |  |  | 
0.48 µg/mL (≈ 1.79 µM) | 1.95 µg/mL (≈ 7.27 µM) | 0.98 µg/mL (≈ 3.65 µM) | 3.91 µg/mL (≈ 14.6 µM) | N#Cc1ccc(-c2csc(N/N=C/C3CC3)n2)cc1 [Compound 3h, (E)-4-(2-(2-(Cyclopropylmethylene)hydrazinyl)thiazol-4-yl)benzonitrile] | 1.95 µg/mL (≈ 7.27 µM) | 3.91 µg/mL (≈ 14.6 µM) | 1.95 µg/mL (≈ 7.27 µM) | 3.91 µg/mL (≈ 14.6 µM) |  |  |  |  |  |  |  |  |  |  |  | 
0.24 µg/mL (≈ 0.844 µM) | 0.98 µg/mL (≈ 3.45 µM) | 0.48 µg/mL (≈ 1.69 µM) | 0.98 µg/mL (≈ 3.45 µM) | [N-]=[N+]=Nc1ccc(-c2csc(N/N=C/C3CC3)n2)cc1 [Compound 3i, (E)-4-(4-Azidophenyl)-2-(2-(cyclopropylmethylene)hydrazinyl)thiazole] | 1.95 µg/mL (≈ 6.86 µM) | 3.91 µg/mL (≈ 13.8 µM) | 1.95 µg/mL (≈ 6.86 µM) | 7.81 µg/mL (≈ 27.5 µM) |  |  |  |  |  |  |  |  |  |  |  | 
0.48 µg/mL (≈ 1.66 µM) | 3.91 µg/mL (≈ 13.6 µM) | 0.98 µg/mL (≈ 3.4 µM) | 3.91 µg/mL (≈ 13.6 µM) | O=[N+]([O-])c1ccc(-c2csc(N/N=C/C3CC3)n2)cc1 [Compound 3j, (E)-2-(2-(Cyclopropylmethylene)hydrazinyl)-4-(4-nitrophenyl)thiazole] | 1.95 µg/mL (≈ 6.76 µM) | 7.81 µg/mL (≈ 27.1 µM) | 3.91 µg/mL (≈ 13.6 µM) | 31.2 µg/mL (≈ 108 µM) |  |  |  |  |  |  |  |  |  |  |  | 
 |  |  |  | C[C@@H]1[C@H](O)[C@@H](C)/C=C/C=C/CC/C=C/C=C/C=C/C=C/C(O[C@H]2O[C@H](C)[C@@H](O)[C@H](N)[C@@H]2O)CC2O[C@](O)(CC(O)C(O)CCC(O)CC(O)CC(O)CC(=O)O[C@H]1C)CC(O)C2C(=O)O (stereo partly drawn) [Nystatin, reference compound] |  |  |  |  | 0.48 µg/mL (≈ 0.518 µM) | 1 | 0.48 µg/mL (≈ 0.518 µM) | 0.24 µg/mL (≈ 0.259 µM) | 1 | 0.24 µg/mL (≈ 0.259 µM) | 0.24 µg/mL (≈ 0.259 µM) | 1 | 0.24 µg/mL (≈ 0.259 µM) | 0.48 µg/mL (≈ 0.518 µM) | 2 | 0.24 µg/mL (≈ 0.259 µM)

SMILES | MIC [1, 6] | MIC [2, 8] | MIC [3, 10] | MIC [4, 12] | MFC [1, 5] | MFC [2, 7] | MFC [3, 9] | MFC [4, 11] | MFC [1] | MFC/MIC [1] | MIC [1] | MFC [2] | MFC/MIC [2] | MIC [2] | MFC [3] | MFC/MIC [3] | MIC [3] | MFC [4] | MFC/MIC [4] | MIC [4]
COc1ccc(-c2csc(N/N=C/C3CC3)n2)cc1 [Compound 3f, (E)-2-(2-(Cyclopropylmethylene)hydrazinyl)-4-(4-methoxyphenyl)thiazole] | 0.015 µg/mL (≈ 0.0549 µM) | 0.24 µg/mL (≈ 0.878 µM) | 0.48 µg/mL (≈ 1.76 µM) | 0.48 µg/mL (≈ 1.76 µM) | 0.03 µg/mL (≈ 0.11 µM) | 1.95 µg/mL (≈ 7.13 µM) | 0.98 µg/mL (≈ 3.59 µM) | 3.91 µg/mL (≈ 14.3 µM) |  |  |  |  |  |  |  |  |  |  |  | 
